Measurements taken from patent US12427106B2, “Elastic sheet with function of re-activating endometrial basal layer in uterine cavity and forming method thereof” (YIPURUN (SHANGHAI) BIOTECHNOLOGY CO., LTD., priority 2018, dated 2025).

What was measured:
[1] = blood concentration in vivo of subjects after implantation or oral dose
Protocol: The blood concentrations of subjects were measured per 2 weeks, and the trend in vivo matched the release in vitro despite the few of data points.
It can be seen from the FIG. that the blood concentration in vivo is consistent with the release in vitro trend, thus the treatment in vivo can be adjusted by the release in vitro.
The following table gives a comparison of a relationship between the oral dose and the blood concentration in vivo and another relationship between the released drug of the elastic sheet and the blood concentration in vivo: […]

[2] = blood concentration in vivo of New Zealand rabbits after implantation or oral dose
Protocol: New Zealand rabbits within 10 weeks after the implantation. […] The blood concentrations of subjects were measured per 2 weeks, and the trend in vivo matched the release in vitro despite the few of data points. […] New Zealand rabbits within 10 weeks after the implantation. […] The blood concentrations of subjects were measured per 2 weeks, and the trend in vivo matched the release in vitro despite the few of data points. […] It can be seen from the FIG. that the blood concentration in vivo is consistent with the release in vitro trend, thus the treatment in vivo can be adjusted by the release in vitro. The following table gives a comparison of a relationship between the oral dose and the blood concentration in vivo and another relationship between the released drug of the elastic sheet and the blood concentration in vivo: Following table 10 gives a comparison of a relationship between the oral dose and the blood concentration in vivo and another relationship between the released drug of the elastic sheet and the blood concentration in vivo: […]

[3] = cited from earlier work

SMILES	Blood concentration ([1]; Oral dose 1000 μg/d) [nM]	Blood concentration ([1]; Oral dose 2000 μg/d) [nM]	Blood concentration ([1]; Oral dose 3000 μg/d) [nM]	Blood concentration ([1]; Oral dose 4000 μg/d) [nM]	Blood concentration ([2]; Oral dose 1000 μg/d) [nM]	Blood concentration ([2]; Oral dose 2000 μg/d) [nM]	Blood concentration ([2]; Oral dose 3000 μg/d) [nM]	increase of the serum concentration of estradiol (E2) ([3]; oral administration of 4 mg (2 mg bid)) [pg/mL]	absorption effect of vaginal administration relative to oral administration ([3]; vaginal versus oral) [times]
C[C@]12CC[C@@H]3c4ccc(O)cc4CC[C@H]3[C@@H]1CC[C@@H]2O [estradiol]	0.1112	0.2558	0.4985	0.9893	0.1112	0.2558	0.4985	–	–
CCCCC(=O)O[C@H]1CC[C@H]2[C@@H]3CCc4cc(O)ccc4[C@H]3CC[C@]12C [estradiol valerate]	–	–	–	–	–	–	–	211.89 ± 57.40	4 to 8
